Active and inactive are the calls of the source. The rule behind the calls is not given here.
Assays:
Assay type in all cases: functional, cell-based
MCF7 [1] = test: Cytotoxicity against human MCF7 cells assessed as reduction in cell viability <= 100 uM after 24 hrs by MTT assay; details: dose microM <=100, time 24.0 hrs
MCF7 [2] = test: Cytotoxicity against human MCF7 cells assessed as reduction in cell viability at 100 nM after 24 hrs in presence of ER antagonist ICI 182,780 by MTT assay
MCF7 [3] = test: Cytotoxicity against human MCF7 cells assessed as 17beta-estradiol-induced reduction in cell viability at 200 uM after 24 hrs by MTT assay
MCF7 [4] = test: Cytotoxicity against human MCF7 cells assessed as 17beta-estradiol-induced reduction in cell viability at 100 uM after 24 hrs by MTT assay

**Q.** Which Activity (MCF7 [1]) does the source give for `CC(C)[C@@H](C)/C=C/[C@@H](C)[C@H]1CCC(=O)[C@]23CC(=O)[C@@H]4CC(=O)CC[C@]4(C)[C@H]2CC[C@]13C` here?
**A.** Its Activity is “Active”.

**Q.** What about the Activity (MCF7 [2]) of the same compound?
**A.** Its Activity is “Active”.

**Q.** Which Activity (MCF7 [1]) does the source give for `CC(C)[C@@H](C)/C=C/[C@@H](C)[C@H]1CC[C@H]2[C@]3(O)C=CC4=CC(=O)CC[C@]4(C)[C@H]3CC[C@]12C` here?
**A.** Its Activity is “Active”.

**Q.** What about the Activity (MCF7 [2]) of the same compound?
**A.** Its Activity is “Active”.

**Q.** What about the Activity (MCF7 [3]) of the same compound?
**A.** The Activity was “Active”.

**Q.** What does the source list for `CC(C)[C@@H](C)/C=C/[C@@H](C)[C@H]1CC[C@@H]2[C@]1(C)CC[C@H]1[C@]23C=C[C@]2(C[C@@H](O)CC[C@]12C)OO3`?
**A.** Activity (MCF7 [1]): Active; Activity (MCF7 [2]): Active; Activity (MCF7 [4]): Active

**Q.** With `CC(C)[C@@H](C)/C=C/[C@@H](C)[C@H]1CC[C@@H]2[C@]1(C)CC=C1[C@]23C=C[C@]2(C[C@@H](O)CC[C@]12C)OO3` as the compound, how does the Activity (MCF7 [1]) read?
**A.** The Activity was “Active”.

**Q.** And the Activity (MCF7 [2])?
**A.** The Activity was “Active”.

**Q.** `COC(=O)C[C@]12OC3=CC(=O)CC[C@]3(C)[C@H]1CC[C@]1(C)[C@@H]([C@H](C)/C=C/[C@H](C)C(C)C)CC[C@H]12` was tested. Which Activity (MCF7 [1]) did it give?
**A.** The Activity was “Active”.

**Q.** What about the Activity (MCF7 [2]) of the same compound?
**A.** Its Activity is “Active”.

From ChEMBL document CHEMBL4665818, “Calvatianone, a Sterol Possessing a 6/5/6/5-Fused Ring System with a Contracted Tetrahydrofuran B-Ring, from the Fruiting Bodies of Calvatia nipponica” (J Nat Prod, 2020)
